Laboratory results: paper PMC4434044, “Influence of terpenoids and acarbose on glycosyltransferases produced by strain Leuconostoc mesenteroides URE 13” (Biotechnology, Biotechnological Equipment, 2014)

How the values were obtained:
[1] = target: T1, dextransucrase from Leuconostoc mesenteroides URE 13; experiment: fructose/glucose release from sucrose, coupled hexokinase assay; Lineweaver-Burk; format: biochemical; details: 1-200 mmol sucrose, 20 mmol/L sodium acetate pH 5.2, 30 °C, inhibition mode not stated
T1 construct: native extracellular enzyme, 180 kDa, from sucrose-grown culture; PEG 1500 precipitation and Sepharose CL-6B size-exclusion

[2] = tested on: T1, dextransucrase from Leuconostoc mesenteroides URE 13; experiment: fructose/glucose release from sucrose, coupled hexokinase assay; format: biochemical; details: 20 mmol/L sodium acetate pH 5.2-5.3, 30 °C; substrate inhibition above 200 mmol
[3] = terpenoid dissolved in DMSO (20% final)

A Ki [1] of 0.29 mmol was found for `C[C@H]1O[C@H](O[C@H]2[C@H](O)[C@@H](O)[C@@H](O[C@H]3[C@H](O)[C@@H](O)C(O)O[C@@H]3CO)O[C@@H]2CO)[C@H](O)[C@@H](O)[C@@H]1N[C@H]1C=C(CO)[C@@H](O)[C@H](O)[C@H]1O` (stereo partly shown) [acarbose] in this work.
A Ki [1, 3] of 0.28 mmol was found for `CC(=O)OC1C=CC2C(=O)OCC23CCC2C(=O)OC(c4ccoc4)C(OC(C)=O)C2(C)C13` (stereo not shown) [splendidin] in this work.
A Km [2] of 18.0 mmol was found for `OC[C@H]1O[C@@](CO)(O[C@H]2O[C@H](CO)[C@@H](O)[C@H](O)[C@H]2O)[C@@H](O)[C@@H]1O` [sucrose] in this work.
A Ki [1, 3] of 0.37 mmol was found for `C[C@H]1[C@H](C)CC[C@]2(C(=O)O)CC[C@]3(C)C(=CC[C@@H]4[C@@]5(C)CC[C@H](O)C(C)(C)[C@@H]5CC[C@]43C)[C@H]12` [ursolic acid] in this work.
